Test systems include SNB-19 CNS; HOP-92 NSCLC; PC-3 prostate; MOLT-4 leukemia; OVCAR-5 ovarian; SF-295 CNS; OVCAR-3 ovarian; SK-MEL-28 melanoma; UO-31 renal; HS 578T breast; A498 renal.
What all share (test): inhibition of tumour cell growth, NCI panel, 48 h

The values below come from PubChem BioAssay (NCI).

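Compound exposure: 48 hours, 5 concentrations, 96-well plates. At the TGI there is no net growth.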

On to `CN1CCN(c2ccc3[nH]c(C4=C(O)C(=O)[C@@H]5C(=C4O)N=C(CO)N5C)nc3n2)CC1`, for which the TGI with SNB-19 CNS, with HOP-92 NSCLC, with PC-3 prostate, with MOLT-4 leukemia, in the assay on OVCAR-5 ovarian and in the assay with SF-295 CNS was over 100 µM in each case. The TGI with OVCAR-3 ovarian, in the assay on SK-MEL-28 melanoma, with UO-31 renal and in the assay on HS 578T breast was over 100 µM in each case.

Take `CCCNCC(O)CNc1ccc(NCC(O)CNCCC)c2c1C(=O)c1ccccc1C2=O` (stereo not given): the TGI came out at 6.35 µM with SNB-19 CNS; 6.81 µM in the assay with HOP-92 NSCLC; 4.7 µM in the assay on PC-3 prostate; 23.5 µM in the assay with A498 renal; 7.6 µM in the assay with MOLT-4 leukemia; 3.99 µM with OVCAR-5 ovarian. Besides, the TGI is 13.7 µM with OVCAR-3 ovarian, 9.69 µM with SK-MEL-28 melanoma, 31.8 µM with UO-31 renal and 16.6 µM in the assay with HS 578T breast.

For the compound `COCC12CCC(OC)C34C5CC6(O)C(OC)C=C(C5C6OC(=O)c5ccccc5)C(C(OC)C13)C4N(C)C2` (stereo not given), the TGI in the assay on SNB-19 CNS, in the assay with HOP-92 NSCLC, in the assay on PC-3 prostate, with A498 renal, with OVCAR-5 ovarian and in the assay with SF-295 CNS was over 100 µM throughout. Further, the TGI in the assay on OVCAR-3 ovarian, with SK-MEL-28 melanoma, with UO-31 renal and in the assay on HS 578T breast was over 100 µM each time.

As to `CN1C(C)(C)CC(=O)C(Br)C1(C)C` (stereo not given), the TGI with SNB-19 CNS, in the assay with HOP-92 NSCLC, in the assay on PC-3 prostate, in the assay with MOLT-4 leukemia, in the assay with OVCAR-5 ovarian and in the assay on SF-295 CNS was over 100 µM in each case. For the same compound, the TGI with OVCAR-3 ovarian, in the assay with SK-MEL-28 melanoma, with UO-31 renal and in the assay on HS 578T breast was over 100 µM throughout.

Consider `Cc1ccc(SCC(CF)OC(C)n2cnc3c(Cl)nc(N)nc32)cc1` (stereo not given), for which the TGI in the assay on SNB-19 CNS, in the assay with HOP-92 NSCLC, with PC-3 prostate, with MOLT-4 leukemia, with OVCAR-5 ovarian and in the assay with SF-295 CNS was over 100 µM throughout. The TGI in the assay with OVCAR-3 ovarian, with SK-MEL-28 melanoma, in the assay on UO-31 renal and in the assay with HS 578T breast was over 100 µM in each case.

`CCCn1c(=O)c2nn3c(=O)n(CCC)c(=O)c3nn2c1=O`: the TGI in the assay on SNB-19 CNS, in the assay on HOP-92 NSCLC, in the assay with PC-3 prostate, in the assay with MOLT-4 leukemia, in the assay on OVCAR-5 ovarian and with SF-295 CNS was over 100 µM throughout. Further, the TGI with OVCAR-3 ovarian, in the assay with SK-MEL-28 melanoma, in the assay on UO-31 renal and in the assay on HS 578T breast was over 100 µM in each case.

In the case of `c1ccc2cc(CNCCCCNCCCNCc3ccc4ccccc4c3)ccc2c1`, the TGI with SNB-19 CNS came to 2.8 µM; in the assay on HOP-92 NSCLC, 3.05 µM; in the assay on PC-3 prostate it was 3.3 µM; in the assay on A498 renal it was 4.42 µM; with OVCAR-5 ovarian, 3.61 µM; with SF-295 CNS it was 2.96 µM. For the same compound, the TGI in the assay with OVCAR-3 ovarian amounted to 3.52 µM; in the assay on SK-MEL-28 melanoma, 3.34 µM; with UO-31 renal, 2.83 µM; with HS 578T breast, 1.26 µM.

Turning to `Cc1ccc(S(=O)(=O)ON2C(=O)c3c(N)c(C#N)c(-c4ccccc4)c(-c4ccccc4)c3C2=O)cc1`, the TGI is over 100 µM with SNB-19 CNS; 49.4 µM in the assay with HOP-92 NSCLC; 32.7 µM with PC-3 prostate; 44.1 µM with A498 renal; 38.7 µM in the assay with MOLT-4 leukemia; 60 µM with OVCAR-5 ovarian. Moreover, the TGI was 92.8 µM in the assay with SF-295 CNS, 27.2 µM with OVCAR-3 ovarian, 29.4 µM with SK-MEL-28 melanoma and over 100 µM in the assay on HS 578T breast.

In the case of `c1ccc2nn(C3CCCO3)nc2c1` (stereo not given), the TGI in the assay on PC-3 prostate, in the assay on A498 renal, in the assay on MOLT-4 leukemia, with OVCAR-5 ovarian, with SF-295 CNS and with OVCAR-3 ovarian was over 100 µM throughout. Also, the TGI with HS 578T breast is over 100 µM.

Turning to `O=C1CCCCC1C(O)(C(F)(F)F)C(F)(F)Cl` (stereo not given), the TGI in the assay on SNB-19 CNS, in the assay with HOP-92 NSCLC, in the assay with PC-3 prostate, with A498 renal, with MOLT-4 leukemia and with OVCAR-5 ovarian was over 10 µM throughout. For the same compound, the TGI in the assay with SF-295 CNS, in the assay with OVCAR-3 ovarian, in the assay with SK-MEL-28 melanoma and in the assay on HS 578T breast was over 10 µM throughout.

In the case of `CC(=O)N=c1ccc2nc(N)nn(O)c-2c1`, the TGI in the assay on SNB-19 CNS, with PC-3 prostate, with A498 renal, in the assay on MOLT-4 leukemia, with OVCAR-5 ovarian and with SF-295 CNS was over 100 µM each time. Moreover, the TGI in the assay with OVCAR-3 ovarian, with SK-MEL-28 melanoma, in the assay on UO-31 renal and in the assay with HS 578T breast was over 100 µM in each case.

With `COC(=O)[C@@H](OC(C)=O)[C@@H](OC(C)=O)c1nnc2ccc(Cl)nn12`, the TGI in the assay on SNB-19 CNS, with PC-3 prostate, in the assay with A498 renal, in the assay with MOLT-4 leukemia, with OVCAR-5 ovarian and in the assay on SF-295 CNS was over 100 µM throughout. The TGI with OVCAR-3 ovarian, in the assay with SK-MEL-28 melanoma and with HS 578T breast was over 100 µM each time.

For the compound `Cc1cccc2c1c(=O)c1c(O)cc3c(c1n2C)C=CC(C)(C)O3`, the TGI in the assay with SNB-19 CNS, in the assay on HOP-92 NSCLC, in the assay on PC-3 prostate, with A498 renal, in the assay with MOLT-4 leukemia and with OVCAR-5 ovarian was over 100 µM throughout. For the same compound, the TGI in the assay on SF-295 CNS, in the assay with OVCAR-3 ovarian, in the assay on SK-MEL-28 melanoma and in the assay on HS 578T breast was over 100 µM in each case.

Consider `O=C1CCCC2=C1CC1=C(CCCC1=O)N2c1ccc([N+](=O)[O-])cc1`, for which the TGI in the assay with SNB-19 CNS, in the assay on PC-3 prostate, with A498 renal, in the assay on MOLT-4 leukemia, with OVCAR-5 ovarian and in the assay on OVCAR-3 ovarian was over 100 µM each time. Also, the TGI in the assay on SK-MEL-28 melanoma, with UO-31 renal and in the assay with HS 578T breast was over 100 µM each time.
